Tests used:
[1] = molecular target: T1, Integrin alpha-4/beta-1 (Homo sapiens, UniProt P05556+P13612); assay: In vitro Very late antigen 4 cell adhesion inhibitory activity measured by binding of fluorescently labeled Ramos cells to immobilized VCAM-1.; format: cell-based
[2] = Inhibition of fluorescent Ramos cell adhesion to vitronectin by alpha-V-beta-3-alphaV/beta-5 integrins; format: functional, cell-based, Homo sapiens
[3] = molecular target: Integrin alpha-4/beta-1, Rattus norvegicus; assay: Inhibition of fluorescent Ramos cell adhesion to VCAM-1 by rat Very late antigen 4 (VLA-4) integrin
[4] = molecular target: Integrin alpha-5/beta-1 (Homo sapiens, UniProt P05556+P08648); assay: Inhibition of fluorescent Ramos cell adhesion to fibronectin by Very late antigen 5 (VLA-5); format: functional, cell-based
Sequence of Integrin alpha-5/beta-1 (P05556 21-798 limits assumed): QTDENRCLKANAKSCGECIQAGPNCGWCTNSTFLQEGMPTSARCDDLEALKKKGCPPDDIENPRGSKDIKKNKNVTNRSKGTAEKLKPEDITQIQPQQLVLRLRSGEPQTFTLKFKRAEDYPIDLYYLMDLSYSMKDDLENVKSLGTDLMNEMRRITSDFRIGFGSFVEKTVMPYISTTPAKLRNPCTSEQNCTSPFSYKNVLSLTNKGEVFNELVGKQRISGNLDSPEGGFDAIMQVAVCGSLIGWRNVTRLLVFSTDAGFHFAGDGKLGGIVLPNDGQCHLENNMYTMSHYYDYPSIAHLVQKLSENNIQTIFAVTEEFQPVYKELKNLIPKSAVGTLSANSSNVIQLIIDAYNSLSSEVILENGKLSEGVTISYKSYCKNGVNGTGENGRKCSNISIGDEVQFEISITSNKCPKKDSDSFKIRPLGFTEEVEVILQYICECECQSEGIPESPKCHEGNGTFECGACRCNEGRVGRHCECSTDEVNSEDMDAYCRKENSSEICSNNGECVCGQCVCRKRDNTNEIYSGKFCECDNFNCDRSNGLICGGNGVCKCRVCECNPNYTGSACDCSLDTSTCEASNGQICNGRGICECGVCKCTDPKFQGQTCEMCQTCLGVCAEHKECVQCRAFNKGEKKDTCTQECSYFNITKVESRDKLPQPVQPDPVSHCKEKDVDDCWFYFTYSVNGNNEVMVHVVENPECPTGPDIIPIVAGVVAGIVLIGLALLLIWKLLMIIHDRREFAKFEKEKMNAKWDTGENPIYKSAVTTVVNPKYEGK
Sequence of Integrin alpha-5/beta-1 (P08648 42-894 limits assumed): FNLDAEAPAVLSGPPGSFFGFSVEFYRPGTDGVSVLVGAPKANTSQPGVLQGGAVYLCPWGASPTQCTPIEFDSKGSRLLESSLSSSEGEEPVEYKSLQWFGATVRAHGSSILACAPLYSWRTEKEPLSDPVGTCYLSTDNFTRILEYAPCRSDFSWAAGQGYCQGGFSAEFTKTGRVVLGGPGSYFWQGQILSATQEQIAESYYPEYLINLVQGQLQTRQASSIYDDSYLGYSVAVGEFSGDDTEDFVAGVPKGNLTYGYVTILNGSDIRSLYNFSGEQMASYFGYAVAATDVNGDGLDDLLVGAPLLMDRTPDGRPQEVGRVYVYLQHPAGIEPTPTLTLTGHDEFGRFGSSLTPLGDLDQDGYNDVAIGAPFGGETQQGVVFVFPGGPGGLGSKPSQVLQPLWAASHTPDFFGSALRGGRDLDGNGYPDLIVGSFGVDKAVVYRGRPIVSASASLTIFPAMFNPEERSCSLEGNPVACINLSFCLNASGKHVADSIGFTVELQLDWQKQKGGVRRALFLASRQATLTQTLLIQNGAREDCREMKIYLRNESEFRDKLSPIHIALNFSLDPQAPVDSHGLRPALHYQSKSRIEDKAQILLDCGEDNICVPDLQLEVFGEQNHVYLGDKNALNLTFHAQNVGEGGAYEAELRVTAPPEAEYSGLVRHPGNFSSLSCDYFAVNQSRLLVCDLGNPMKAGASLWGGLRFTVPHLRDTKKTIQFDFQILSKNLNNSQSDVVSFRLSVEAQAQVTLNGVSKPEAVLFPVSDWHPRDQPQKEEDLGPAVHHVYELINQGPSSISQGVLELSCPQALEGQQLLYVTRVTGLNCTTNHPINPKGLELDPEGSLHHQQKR
Sequence of Integrin alpha-5/beta-1 (P08648 895-1049 limits assumed): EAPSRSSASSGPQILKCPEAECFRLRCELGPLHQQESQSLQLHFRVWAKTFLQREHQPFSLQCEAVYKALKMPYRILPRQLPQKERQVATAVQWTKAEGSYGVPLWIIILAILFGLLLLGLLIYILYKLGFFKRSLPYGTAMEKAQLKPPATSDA

[5] = Inhibition of fluorescent Ramos cell adhesion to ICAM-1 by mouse Mac-1 integrin; format: functional, cell-based
[6] = molecular target: T2, Integrin alpha-4/beta-7 (Homo sapiens, UniProt P13612+P26010); assay: (§1) Inhibition of fluorescent Ramos cell adhesion to VCAM-1 by alpha4-beta7 integrin; format: protein-complex assay
T2 sequence (P13612 whole entry): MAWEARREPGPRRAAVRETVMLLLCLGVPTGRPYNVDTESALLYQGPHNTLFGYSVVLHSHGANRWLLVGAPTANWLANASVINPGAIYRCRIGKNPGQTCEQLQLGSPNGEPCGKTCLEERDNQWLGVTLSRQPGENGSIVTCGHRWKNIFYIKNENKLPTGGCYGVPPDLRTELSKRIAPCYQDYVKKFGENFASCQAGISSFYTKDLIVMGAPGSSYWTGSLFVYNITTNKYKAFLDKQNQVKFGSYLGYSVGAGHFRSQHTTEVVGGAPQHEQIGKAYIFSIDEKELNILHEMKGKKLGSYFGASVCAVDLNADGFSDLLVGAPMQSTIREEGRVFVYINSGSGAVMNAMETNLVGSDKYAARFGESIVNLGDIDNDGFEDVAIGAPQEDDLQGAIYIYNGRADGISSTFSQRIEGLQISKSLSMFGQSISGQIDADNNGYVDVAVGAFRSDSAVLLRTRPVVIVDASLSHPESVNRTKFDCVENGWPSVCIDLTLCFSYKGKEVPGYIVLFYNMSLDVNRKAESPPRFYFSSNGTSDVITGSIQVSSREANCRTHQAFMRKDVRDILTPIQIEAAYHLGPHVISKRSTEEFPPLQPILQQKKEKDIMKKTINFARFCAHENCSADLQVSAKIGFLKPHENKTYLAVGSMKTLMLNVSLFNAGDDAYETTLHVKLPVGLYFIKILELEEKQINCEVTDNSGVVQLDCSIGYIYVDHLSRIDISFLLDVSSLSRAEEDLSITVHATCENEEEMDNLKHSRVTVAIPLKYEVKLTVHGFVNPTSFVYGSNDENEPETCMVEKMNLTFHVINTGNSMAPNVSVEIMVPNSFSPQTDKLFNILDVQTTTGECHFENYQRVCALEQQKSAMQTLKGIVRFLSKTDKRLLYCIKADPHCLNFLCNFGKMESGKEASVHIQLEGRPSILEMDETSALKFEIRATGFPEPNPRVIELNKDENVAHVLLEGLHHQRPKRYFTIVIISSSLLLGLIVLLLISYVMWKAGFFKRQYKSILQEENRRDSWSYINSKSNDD
T2 sequence (P26010 whole entry): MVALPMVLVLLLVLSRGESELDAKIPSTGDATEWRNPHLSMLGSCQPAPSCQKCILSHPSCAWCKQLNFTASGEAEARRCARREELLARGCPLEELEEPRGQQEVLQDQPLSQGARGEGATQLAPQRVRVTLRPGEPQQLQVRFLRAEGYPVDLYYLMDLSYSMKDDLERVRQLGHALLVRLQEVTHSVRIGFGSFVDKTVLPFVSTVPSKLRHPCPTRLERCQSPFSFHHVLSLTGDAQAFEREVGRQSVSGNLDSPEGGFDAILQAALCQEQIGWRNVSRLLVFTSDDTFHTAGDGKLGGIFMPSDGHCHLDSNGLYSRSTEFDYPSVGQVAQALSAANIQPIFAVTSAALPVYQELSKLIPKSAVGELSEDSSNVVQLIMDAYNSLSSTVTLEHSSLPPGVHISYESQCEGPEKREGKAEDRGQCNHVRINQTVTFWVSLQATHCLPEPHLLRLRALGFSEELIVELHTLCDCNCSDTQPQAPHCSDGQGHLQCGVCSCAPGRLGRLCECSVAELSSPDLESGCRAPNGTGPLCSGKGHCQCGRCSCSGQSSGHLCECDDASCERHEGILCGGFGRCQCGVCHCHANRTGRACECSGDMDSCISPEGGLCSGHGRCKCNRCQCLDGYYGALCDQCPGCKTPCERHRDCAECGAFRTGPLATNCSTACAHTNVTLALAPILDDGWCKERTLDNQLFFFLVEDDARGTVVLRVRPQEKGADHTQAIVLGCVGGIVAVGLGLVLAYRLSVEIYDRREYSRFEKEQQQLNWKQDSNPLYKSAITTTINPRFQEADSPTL

[7] = molecular target: Integrin alpha-4/beta-1, Mus musculus; assay: Inhibition of fluorescent Ramos cell adhesion to VCAM-1 by mouse Very late antigen 4 (VLA-4) integrin
[8] = molecular target: T1, Integrin alpha-4/beta-1; assay: Inhibition of fluorescent Ramos cell adhesion to fibronectin by Very late antigen 4 (VLA-4); format: cell-based
[9] = molecular target: T2, Integrin alpha-4/beta-7; assay: as §1; format: cell-based
[10] = molecular target: Integrin alpha-4/beta-1, Mus musculus; assay: Inhibition of fluorescent Ramos cell adhesion to VCAM-1 by mouse Very late antigen 4 (VLA-4) integrin; remark: listed apart in the source

T1 sequence (P05556 whole entry, one chain of several): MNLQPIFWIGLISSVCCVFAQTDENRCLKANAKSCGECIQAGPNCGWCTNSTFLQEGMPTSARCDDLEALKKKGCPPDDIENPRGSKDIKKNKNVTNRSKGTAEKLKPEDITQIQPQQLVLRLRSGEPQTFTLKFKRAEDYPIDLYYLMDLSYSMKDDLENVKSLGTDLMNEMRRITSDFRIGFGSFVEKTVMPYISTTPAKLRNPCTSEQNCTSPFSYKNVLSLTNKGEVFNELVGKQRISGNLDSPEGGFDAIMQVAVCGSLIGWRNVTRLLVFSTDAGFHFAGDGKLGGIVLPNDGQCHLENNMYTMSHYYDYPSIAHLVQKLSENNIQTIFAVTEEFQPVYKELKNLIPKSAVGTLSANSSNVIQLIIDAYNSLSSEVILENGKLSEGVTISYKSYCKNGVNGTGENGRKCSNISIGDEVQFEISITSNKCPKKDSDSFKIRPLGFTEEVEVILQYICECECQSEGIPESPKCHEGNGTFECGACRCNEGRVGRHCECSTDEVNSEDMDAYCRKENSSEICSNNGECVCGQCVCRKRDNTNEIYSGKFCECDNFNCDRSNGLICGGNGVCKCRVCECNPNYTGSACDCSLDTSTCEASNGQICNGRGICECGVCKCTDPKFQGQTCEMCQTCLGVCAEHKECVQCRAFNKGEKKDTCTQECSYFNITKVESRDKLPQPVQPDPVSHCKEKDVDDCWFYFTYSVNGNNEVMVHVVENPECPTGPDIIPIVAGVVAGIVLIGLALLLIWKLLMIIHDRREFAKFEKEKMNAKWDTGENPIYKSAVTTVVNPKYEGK

## C/C=C/[C@@H](CC(=O)O)NC(=O)C[C@@H](CC(C)C)NC(=O)Cc1ccc(NC(=O)Nc2ccccc2C)cc1
[1]
  IC50: 103000 nM

## COCCCN(CC(=O)N[C@@H](CC(=O)O)c1ccccc1)C(=O)Cc1ccc(NC(=O)Nc2ccccc2C)cc1
[1]
  IC50: 11.7 nM
[2]
  IC50: > 100000 nM
[3]
  IC50: 24.5 nM
[4]
  IC50: > 500000 nM
[5]
  IC50: > 500000 nM
[6]
  IC50: > 100000 nM
[7]
  IC50: 21.7 nM
[8]
  IC50: 14.4 nM

## Cc1ccccc1NC(=O)Nc1ccc(CC(=O)N[C@H](CC(=O)N[C@@H](CC(=O)O)c2ccccc2)CC(C)C)cc1
[1]
  IC50: 7300 nM

## Cc1ccccc1NC(=O)Nc1ccc(CC(=O)N[C@@H](CC(C)C)C(=O)N[C@@H](CC(=O)O)c2ccc3c(c2)OCO3)cc1
[1]
  IC50: 3 nM

## Cc1ccccc1NC(=O)Nc1ccc(CC(=O)N(CCC(C)C)CC(=O)N(CCC(=O)O)CCc2ccccc2)cc1
[1]
  IC50: 98 nM

## Cc1ccccc1NC(=O)Nc1ccc(CC(=O)N[C@@H](CC(=O)N[C@@H](CC(=O)O)c2ccccc2)CC(C)C)cc1
[1]
  IC50: 262000 nM

## C=CCN(CC(=O)O)NC(=O)[C@@H](CC(C)C)NC(=O)Cc1ccc(NC(=O)Nc2ccccc2C)cc1
[1]
  IC50: 11000 nM

## CCOC(=O)C[C@H](NC(=O)CN(CCCOC)C(=O)Cc1ccc(NC(=O)Nc2ccccc2C)cc1)c1ccc(OC)cc1
[1]
  IC50: 75000 nM

## Cc1ccccc1NC(=O)Nc1ccc(CC(=O)N[C@H](CC(C)C)C(=O)N(CCC(=O)O)CCc2ccccc2)cc1
[1]
  IC50: 37000 nM

## COCCCN(CC(=O)N[C@@H](CC(=O)O)c1ccc(OC)c(OC)c1)C(=O)Cc1ccc(NC(=O)Nc2ccccc2C)cc1
[1]
  IC50: 7.1 nM
[2]
  IC50: > 100000 nM
[3]
  IC50: 21.6 nM
[4]
  IC50: > 500000 nM
[5]
  IC50: > 500000 nM
[6]
  IC50: > 100000 nM
[7]
  IC50: 27.3 nM
[8]
  IC50: 13.4 nM

## COc1ccc([C@H](CC(=O)O)NC(=O)CN(CCC(C)C)C(=O)Cc2ccc(NC(=O)Nc3ccccc3C)cc2)cc1OC
[1]
  IC50: 20 nM

## C=CC[C@H](CC(=O)O)NC(=O)[C@H](CC(C)C)NC(=O)Cc1ccc(NC(=O)Nc2ccccc2C)cc1
[1]
  IC50: 16.5 nM

## C/C=C/[C@H](CC(=O)O)NC(=O)CN(CCC(C)C)C(=O)Cc1ccc(NC(=O)Nc2ccccc2C)cc1
[1]
  IC50: 45 nM

## Cc1ccccc1NC(=O)Nc1ccc(CC(=O)N(CCC(C)C)CC(=O)N[C@@H](CC(=O)O)c2ccccc2)cc1
[1]
  IC50: 29 nM

## COCCCN(CC(=O)N[C@@H](CC(=O)O)c1ccc(OC)cc1)C(=O)Cc1ccc(NC(=O)Nc2ccccc2C)cc1
[1]
  IC50: 4.7 nM
[2]
  IC50: > 100000 nM
[3]
  IC50: 27.2 nM
[4]
  IC50: > 500000 nM
[5]
  IC50: > 500000 nM
[7]
  IC50: 51.9 nM
[8]
  IC50: 36 nM
[9]
  IC50: 6140 nM

## C/C=C/[C@H](CC(=O)O)NC(=O)CN(CCCOC)C(=O)Cc1ccc(NC(=O)Nc2ccccc2C)cc1
[1]
  IC50: 15.4 nM
[2]
  IC50: 59000 nM
[3]
  IC50: 20.5 nM
[4]
  IC50: > 500000 nM
[5]
  IC50: > 500000 nM
[6]
  IC50: > 100000 nM
[8]
  IC50: 7.9 nM
[10]
  IC50: 7.7 nM

## Cc1ccccc1NC(=O)Nc1ccc(CC(=O)NN(CC(C)C)C(=O)NC(CC(=O)O)c2ccccc2)cc1 (centres undefined)
[1]
  IC50: 2900 nM

## COCCCCN(CC(=O)N[C@@H](CC(=O)O)c1ccc(OC)c(OC)c1)C(=O)Cc1ccc(NC(=O)Nc2ccccc2C)cc1
[1]
  IC50: 1.3 nM

## Cc1ccccc1NC(=O)Nc1ccc(CC(=O)N[C@H](CC(=O)N(CC(=O)O)Cc2ccccc2)CC(C)C)cc1
[1]
  IC50: 247000 nM

## C=CCC(CC(=O)O)NC(=O)N(CC(C)C)NC(=O)Cc1ccc(NC(=O)Nc2ccccc2C)cc1 (centres undefined)
[1]
  IC50: 5900 nM

## Cc1ccccc1NC(=O)Nc1ccc(CC(=O)N[C@H](CC(=O)N[C@@H](C(=O)O)c2ccccc2)CC(C)C)cc1
[1]
  IC50: 6400 nM

— ChEMBL document CHEMBL1134819, “Design and synthesis of potent and selective inhibitors of integrin VLA-4” (Bioorg Med Chem Lett, 2001)
